ChEMBL document CHEMBL5465560, “Selectivity Literature for EUbOPEN Chemogenomic Library” (2024)
Each block holds one compound with its values, some of them ahead of it.

Key:
[1] = biological target: Ribosomal protein S6 kinase alpha-2 (Homo sapiens) (UniProt Q15349); assay: Selectivity interaction (Millipore kinase profiler) EUB0000124b RPS6KA2; settings: at 10 µM
[2] = biological target: T1, SNF-related serine/threonine-protein kinase (Homo sapiens) (UniProt Q9NRH2); assay: Selectivity interaction (ActivX KiNativ screen (kinase selectivity in THP-1 cell lysates)) EUB0000639a SNRK; format: subcellular; settings: lysate
T1 sequence (whole entry): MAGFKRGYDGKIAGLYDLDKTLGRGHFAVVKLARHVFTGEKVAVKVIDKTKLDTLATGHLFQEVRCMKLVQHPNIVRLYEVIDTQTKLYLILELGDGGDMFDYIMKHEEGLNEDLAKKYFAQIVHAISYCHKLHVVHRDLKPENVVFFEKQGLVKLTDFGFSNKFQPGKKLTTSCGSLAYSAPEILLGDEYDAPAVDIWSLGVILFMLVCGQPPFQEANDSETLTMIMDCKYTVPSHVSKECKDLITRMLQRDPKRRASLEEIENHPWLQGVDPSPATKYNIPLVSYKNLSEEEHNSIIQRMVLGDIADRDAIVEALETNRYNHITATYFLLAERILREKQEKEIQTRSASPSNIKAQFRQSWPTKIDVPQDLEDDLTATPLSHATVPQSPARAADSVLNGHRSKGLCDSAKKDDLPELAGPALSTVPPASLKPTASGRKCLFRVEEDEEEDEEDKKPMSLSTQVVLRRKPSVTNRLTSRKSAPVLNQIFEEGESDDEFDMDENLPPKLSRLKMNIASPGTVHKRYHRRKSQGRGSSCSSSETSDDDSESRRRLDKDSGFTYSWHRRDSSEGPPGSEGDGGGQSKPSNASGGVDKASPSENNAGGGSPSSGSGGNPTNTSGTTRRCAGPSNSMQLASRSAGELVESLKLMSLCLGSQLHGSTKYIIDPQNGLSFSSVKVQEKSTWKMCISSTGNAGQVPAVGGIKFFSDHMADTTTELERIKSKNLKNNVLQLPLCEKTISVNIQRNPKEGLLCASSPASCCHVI

[3] = biological target: Myosin-IIIa (Homo sapiens) (UniProt Q8NEV4); assay: Selectivity interaction (KinomeScan (DiscoverX)) EUB0000595a MYO3A; settings: at 10 µM
CREB-binding protein = CREB-binding protein (Homo sapiens, UniProt Q92793); assay: Selectivity interaction (Human bromodomain panel (DSF assay)) EUB0000233b CREBBP
[4] = biological target: Mitogen-activated protein kinase kinase kinase kinase 4 (Homo sapiens, UniProt O95819); assay: Selectivity interaction (KinomeScan (DiscoverX)) EUB0000045b MAP4K4
[5] = biological target: T2, Serine/threonine-protein kinase 17B (Homo sapiens) (UniProt O94768); assay: Selectivity interaction (KinomeScan (DiscoverX)) EUB0000655a STK17B; settings: at 10 µM
T2 sequence (whole entry): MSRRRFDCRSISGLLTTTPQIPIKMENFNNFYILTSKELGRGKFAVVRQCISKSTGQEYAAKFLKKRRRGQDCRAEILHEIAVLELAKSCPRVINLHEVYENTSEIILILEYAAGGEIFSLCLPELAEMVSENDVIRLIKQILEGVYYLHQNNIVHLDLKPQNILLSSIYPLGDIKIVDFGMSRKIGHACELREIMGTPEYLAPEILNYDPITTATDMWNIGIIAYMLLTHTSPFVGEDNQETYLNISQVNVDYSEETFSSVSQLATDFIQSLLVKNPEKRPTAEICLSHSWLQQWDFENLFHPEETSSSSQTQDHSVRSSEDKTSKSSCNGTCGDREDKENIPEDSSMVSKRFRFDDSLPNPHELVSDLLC

[6] = biological target: T3, Phosphatidylinositol 3-kinase C2 domain-containing subunit gamma (Homo sapiens) (UniProt O75747); assay: Selectivity interaction (KinomeScan (DiscoverX)) EUB0001619a PIK3C2G; settings: at 1 µM
T3 sequence (whole entry): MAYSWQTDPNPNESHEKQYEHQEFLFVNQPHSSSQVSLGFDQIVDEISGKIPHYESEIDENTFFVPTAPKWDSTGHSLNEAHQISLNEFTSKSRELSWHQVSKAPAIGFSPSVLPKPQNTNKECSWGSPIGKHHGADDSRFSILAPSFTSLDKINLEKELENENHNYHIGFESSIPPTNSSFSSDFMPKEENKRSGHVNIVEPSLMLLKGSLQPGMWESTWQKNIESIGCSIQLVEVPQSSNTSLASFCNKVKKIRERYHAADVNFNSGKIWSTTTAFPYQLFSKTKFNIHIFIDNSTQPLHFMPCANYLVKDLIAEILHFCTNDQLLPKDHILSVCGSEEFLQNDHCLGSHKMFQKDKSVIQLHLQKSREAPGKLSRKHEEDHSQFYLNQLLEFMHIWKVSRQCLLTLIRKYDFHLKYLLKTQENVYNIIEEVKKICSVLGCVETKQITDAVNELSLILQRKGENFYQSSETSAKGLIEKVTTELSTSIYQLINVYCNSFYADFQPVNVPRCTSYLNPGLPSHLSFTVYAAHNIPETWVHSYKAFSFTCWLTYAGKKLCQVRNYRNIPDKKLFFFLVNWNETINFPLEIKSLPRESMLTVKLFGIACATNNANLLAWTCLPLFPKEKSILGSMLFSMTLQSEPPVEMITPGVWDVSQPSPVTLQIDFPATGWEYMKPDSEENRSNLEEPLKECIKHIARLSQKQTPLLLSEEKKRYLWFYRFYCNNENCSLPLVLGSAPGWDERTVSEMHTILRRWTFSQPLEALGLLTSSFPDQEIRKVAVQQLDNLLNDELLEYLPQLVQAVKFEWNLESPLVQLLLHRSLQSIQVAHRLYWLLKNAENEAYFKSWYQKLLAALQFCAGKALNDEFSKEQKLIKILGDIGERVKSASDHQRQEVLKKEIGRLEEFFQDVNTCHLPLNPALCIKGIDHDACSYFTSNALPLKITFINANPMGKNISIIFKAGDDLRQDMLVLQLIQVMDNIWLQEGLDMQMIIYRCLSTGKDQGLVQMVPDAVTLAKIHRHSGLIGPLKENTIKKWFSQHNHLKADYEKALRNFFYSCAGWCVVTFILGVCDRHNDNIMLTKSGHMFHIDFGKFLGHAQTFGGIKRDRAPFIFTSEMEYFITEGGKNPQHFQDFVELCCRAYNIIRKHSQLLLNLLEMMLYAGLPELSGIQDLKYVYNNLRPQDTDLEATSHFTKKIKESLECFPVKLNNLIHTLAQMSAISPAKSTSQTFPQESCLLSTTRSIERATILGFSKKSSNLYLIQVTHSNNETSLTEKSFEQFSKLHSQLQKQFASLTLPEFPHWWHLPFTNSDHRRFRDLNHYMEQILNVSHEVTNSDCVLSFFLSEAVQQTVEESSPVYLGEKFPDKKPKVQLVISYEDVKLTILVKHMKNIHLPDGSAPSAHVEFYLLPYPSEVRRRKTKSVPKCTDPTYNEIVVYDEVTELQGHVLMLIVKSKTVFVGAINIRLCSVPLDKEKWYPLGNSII

Chain of Mitogen-activated protein kinase kinase kinase kinase 4 (O95819 2-1239 limits assumed): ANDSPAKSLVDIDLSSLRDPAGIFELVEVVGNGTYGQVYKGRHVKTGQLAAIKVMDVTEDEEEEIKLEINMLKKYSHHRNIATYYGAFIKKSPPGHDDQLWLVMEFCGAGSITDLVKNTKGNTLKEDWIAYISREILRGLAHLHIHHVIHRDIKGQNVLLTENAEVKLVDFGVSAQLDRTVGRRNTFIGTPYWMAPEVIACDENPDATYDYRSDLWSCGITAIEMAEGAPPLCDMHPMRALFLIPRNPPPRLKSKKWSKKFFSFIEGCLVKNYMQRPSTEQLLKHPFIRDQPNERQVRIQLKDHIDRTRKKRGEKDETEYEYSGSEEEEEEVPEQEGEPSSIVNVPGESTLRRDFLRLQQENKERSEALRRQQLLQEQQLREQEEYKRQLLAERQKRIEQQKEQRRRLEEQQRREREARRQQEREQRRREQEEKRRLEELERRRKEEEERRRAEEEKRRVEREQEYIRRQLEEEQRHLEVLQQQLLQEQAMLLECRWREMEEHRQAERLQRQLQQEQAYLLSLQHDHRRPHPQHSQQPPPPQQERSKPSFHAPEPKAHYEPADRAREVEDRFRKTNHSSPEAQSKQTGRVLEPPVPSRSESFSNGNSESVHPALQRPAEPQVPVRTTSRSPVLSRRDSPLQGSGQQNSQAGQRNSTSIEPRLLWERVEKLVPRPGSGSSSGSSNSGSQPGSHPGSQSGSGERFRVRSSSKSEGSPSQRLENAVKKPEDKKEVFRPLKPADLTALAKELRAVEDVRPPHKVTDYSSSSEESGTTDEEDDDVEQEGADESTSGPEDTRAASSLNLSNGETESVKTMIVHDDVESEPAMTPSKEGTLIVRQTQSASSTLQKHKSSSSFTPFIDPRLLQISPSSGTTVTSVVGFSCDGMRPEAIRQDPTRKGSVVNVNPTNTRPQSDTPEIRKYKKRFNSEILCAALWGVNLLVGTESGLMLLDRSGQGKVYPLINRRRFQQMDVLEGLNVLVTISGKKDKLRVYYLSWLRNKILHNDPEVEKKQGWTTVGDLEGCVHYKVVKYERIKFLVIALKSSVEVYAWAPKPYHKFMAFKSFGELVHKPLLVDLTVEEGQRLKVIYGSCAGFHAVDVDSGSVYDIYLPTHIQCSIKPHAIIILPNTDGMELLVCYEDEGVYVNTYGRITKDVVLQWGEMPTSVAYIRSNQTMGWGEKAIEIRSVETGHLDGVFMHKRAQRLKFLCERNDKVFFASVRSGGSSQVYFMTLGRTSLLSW
Chain of CREB-binding protein (Q92793 2-2442 limits assumed): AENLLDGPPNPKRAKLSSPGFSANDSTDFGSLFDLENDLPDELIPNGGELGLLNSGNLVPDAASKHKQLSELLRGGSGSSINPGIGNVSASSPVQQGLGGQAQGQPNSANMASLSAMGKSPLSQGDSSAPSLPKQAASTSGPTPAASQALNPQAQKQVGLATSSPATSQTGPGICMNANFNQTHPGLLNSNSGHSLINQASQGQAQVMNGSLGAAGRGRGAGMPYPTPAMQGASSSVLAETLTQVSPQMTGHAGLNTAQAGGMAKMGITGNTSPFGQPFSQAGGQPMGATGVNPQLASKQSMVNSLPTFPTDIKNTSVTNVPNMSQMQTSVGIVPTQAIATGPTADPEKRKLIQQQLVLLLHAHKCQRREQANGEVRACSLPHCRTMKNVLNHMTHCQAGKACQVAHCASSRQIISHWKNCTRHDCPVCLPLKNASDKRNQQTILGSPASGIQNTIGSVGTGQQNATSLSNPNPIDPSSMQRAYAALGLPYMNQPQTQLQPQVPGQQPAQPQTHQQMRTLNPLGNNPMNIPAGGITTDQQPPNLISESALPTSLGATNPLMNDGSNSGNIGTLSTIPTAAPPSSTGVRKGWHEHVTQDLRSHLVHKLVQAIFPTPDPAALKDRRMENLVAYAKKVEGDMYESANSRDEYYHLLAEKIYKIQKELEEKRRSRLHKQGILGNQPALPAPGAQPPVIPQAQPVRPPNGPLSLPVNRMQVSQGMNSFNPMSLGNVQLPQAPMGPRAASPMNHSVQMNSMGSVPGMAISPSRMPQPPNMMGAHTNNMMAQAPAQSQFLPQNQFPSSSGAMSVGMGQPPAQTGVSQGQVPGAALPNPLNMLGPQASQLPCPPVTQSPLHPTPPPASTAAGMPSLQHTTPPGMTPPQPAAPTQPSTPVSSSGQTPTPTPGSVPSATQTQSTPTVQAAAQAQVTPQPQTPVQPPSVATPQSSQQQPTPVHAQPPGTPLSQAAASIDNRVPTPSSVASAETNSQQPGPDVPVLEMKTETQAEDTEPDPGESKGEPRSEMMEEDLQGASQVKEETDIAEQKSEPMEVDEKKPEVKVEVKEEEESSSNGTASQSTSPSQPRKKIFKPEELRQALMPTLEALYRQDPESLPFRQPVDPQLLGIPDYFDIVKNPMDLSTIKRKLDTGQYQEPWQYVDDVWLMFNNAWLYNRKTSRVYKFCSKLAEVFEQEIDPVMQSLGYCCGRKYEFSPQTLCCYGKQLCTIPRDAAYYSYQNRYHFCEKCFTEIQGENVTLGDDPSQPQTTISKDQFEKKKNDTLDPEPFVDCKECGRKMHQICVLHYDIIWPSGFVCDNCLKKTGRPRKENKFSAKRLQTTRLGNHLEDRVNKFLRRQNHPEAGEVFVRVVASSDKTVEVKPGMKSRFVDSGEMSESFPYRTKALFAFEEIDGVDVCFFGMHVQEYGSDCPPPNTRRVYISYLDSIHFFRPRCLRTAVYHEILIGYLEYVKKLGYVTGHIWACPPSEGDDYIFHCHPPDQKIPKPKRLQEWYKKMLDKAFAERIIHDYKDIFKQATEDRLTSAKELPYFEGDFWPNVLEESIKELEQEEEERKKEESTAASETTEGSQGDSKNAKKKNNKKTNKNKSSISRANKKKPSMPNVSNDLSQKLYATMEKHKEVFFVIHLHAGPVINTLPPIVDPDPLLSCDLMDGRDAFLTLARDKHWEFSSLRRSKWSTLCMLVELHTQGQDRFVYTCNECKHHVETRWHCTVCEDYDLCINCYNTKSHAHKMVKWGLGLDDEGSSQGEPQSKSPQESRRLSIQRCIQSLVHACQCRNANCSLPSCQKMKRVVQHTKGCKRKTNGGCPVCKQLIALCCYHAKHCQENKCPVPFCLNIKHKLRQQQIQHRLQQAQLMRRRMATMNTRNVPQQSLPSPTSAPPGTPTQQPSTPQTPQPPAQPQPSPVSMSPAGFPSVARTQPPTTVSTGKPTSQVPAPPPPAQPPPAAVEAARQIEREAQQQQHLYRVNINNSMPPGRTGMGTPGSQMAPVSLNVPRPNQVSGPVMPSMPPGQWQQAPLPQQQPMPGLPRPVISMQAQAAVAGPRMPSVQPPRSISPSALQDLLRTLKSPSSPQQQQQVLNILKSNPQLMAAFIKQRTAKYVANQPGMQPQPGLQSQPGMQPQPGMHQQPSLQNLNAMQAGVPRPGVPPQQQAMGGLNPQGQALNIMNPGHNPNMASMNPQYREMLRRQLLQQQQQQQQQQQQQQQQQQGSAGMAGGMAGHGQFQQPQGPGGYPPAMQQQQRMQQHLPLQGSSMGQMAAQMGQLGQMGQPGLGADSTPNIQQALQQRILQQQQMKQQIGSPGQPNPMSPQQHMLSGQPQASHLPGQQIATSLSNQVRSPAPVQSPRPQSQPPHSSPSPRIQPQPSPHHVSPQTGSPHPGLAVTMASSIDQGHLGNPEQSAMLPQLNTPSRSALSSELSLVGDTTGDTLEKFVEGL
Chain of Ribosomal protein S6 kinase alpha-2 (Homo sapiens) (Q15349 whole entry): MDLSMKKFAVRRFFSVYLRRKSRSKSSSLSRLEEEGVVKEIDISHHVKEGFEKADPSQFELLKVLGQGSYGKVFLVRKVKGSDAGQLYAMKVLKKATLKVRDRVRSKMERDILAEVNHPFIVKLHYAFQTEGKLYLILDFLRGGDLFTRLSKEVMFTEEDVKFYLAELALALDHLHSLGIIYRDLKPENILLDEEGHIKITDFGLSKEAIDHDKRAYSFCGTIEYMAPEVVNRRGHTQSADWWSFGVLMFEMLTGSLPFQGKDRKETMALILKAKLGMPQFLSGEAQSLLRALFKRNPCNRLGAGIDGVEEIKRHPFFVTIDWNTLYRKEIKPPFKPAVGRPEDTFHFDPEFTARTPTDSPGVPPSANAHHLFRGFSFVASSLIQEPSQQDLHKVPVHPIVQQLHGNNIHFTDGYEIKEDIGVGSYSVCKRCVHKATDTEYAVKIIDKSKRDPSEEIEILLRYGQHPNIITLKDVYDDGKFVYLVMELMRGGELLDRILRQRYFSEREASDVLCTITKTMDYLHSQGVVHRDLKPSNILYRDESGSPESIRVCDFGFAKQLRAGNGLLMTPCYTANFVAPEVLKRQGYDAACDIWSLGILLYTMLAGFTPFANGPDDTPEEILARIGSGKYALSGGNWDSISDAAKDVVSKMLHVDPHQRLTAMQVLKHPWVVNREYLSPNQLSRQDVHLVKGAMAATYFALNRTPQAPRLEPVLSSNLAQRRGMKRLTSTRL

% of control [1]: 102%
Compound: CC(=O)Nc1cccc(-n2c(=O)n(C3CC3)c(=O)c3c(Nc4ccc(I)cc4F)n(C)c(=O)c(C)c32)c1

% of inhibition ([2]; at 0.01 µM): -4.2% | % of inhibition ([2]; at 0.04 µM): 1.9% | % of inhibition ([2]; at 0.2 µM): 21.5% | % of inhibition ([2]; at 1 µM): 3.6% | % of inhibition ([2]; at 5 µM): 23.9%
Compound: CC[C@@H]1[C@H](F)C(=O)N[C@@H]1COc1nccc2cc(C(N)=O)c(OC)cc12 [ZIMLOVISERTIB]

Compound: COCC(=O)NC/C=C/c1ccc2ncnc(Nc3ccc(Oc4ccc(C)nc4)c(C)c3)c2c1 [CP-724714]
% of control [3]: 75%

dTM (CREB-binding protein): < 2 K
Compound: CN(C)CCCOc1ccc(-c2cc(NCCCn3cccn3)nc(S(C)(=O)=O)n2)cc1

Compound: C=CC(=O)Nc1cc(-n2c(=O)ccc3cnc4ccc(-c5ccc(NS(C)(=O)=O)cc5)cc4c32)ccc1C
% of control ([4]; at 1 µM): 100% | % of control ([4]; at 10 µM): 100%

Compound: CN(C)CCOc1ccc(-c2nc(-c3ccncc3)c(-c3ccc4c(c3)CC/C4=N\O)[nH]2)cc1
% of control [5]: 87%

Compound: N#Cc1cccc(-c2c[nH]c3ncnc(N4CCOCC4)c23)c1
% of control [6]: 100%
